# How the values were obtained:
# treated eyes (right eye) = conditions: rabbit, in vivo
# Method: Young adult New Zealand White rabbits each weighing 3-4 kg were obtained from Western Oregon Rabbit Co. (Philomath, Oreg.). […] All animals were acclimated and observed for health issues for at least two weeks prior to being used in the study.
# (§1) For the ocular toxicity study, there were four groups. […] The total exposure was 12 doses over the period of 12 weeks. Clinical observations were performed on weekdays, and before and after each dosing. Following the final observations (i.e., one week after the last dose), the rabbits were sacrificed and the eyes were processed for histological evaluation.
# One drop of sterile proparacaine hydrochloride (a local anesthetic) was put on the eye (to be treated) 5 minutes before dose administration. […] The position of the device was checked to ensure that the active agent matrix was in immediate contact with the white part of the eye but not the cornea. Digital timers were used for accurate application times (i.e., 5, 10, or 20 minutes). After the given application duration, the applicator was carefully removed from the eye.
# All animals (both left and right eyes) were examined by indirect ophthalmoscopy of the cornea, conjunctiva, anterior chamber, vitreous, posterior chamber, and sclera. […] Observations on the anterior and posterior segments of the eye were made, graded, and recorded. […]
# [1] = Ocular toxicity study: body weight; conditions: 20 min, 12 weekly doses
# Method: as §1
# Body weights of the animal were taken upon arrival, and then monthly. All animals (both left and right eyes) were examined by indirect ophthalmoscopy of the cornea, conjunctiva, anterior chamber, vitreous, posterior chamber, and sclera. One to two drops each of phenylephrine hydrochloride and cyclopentolate hydrochloride were used as mydriatics. Observations on the anterior and posterior segments of the eye were made, graded, and recorded. A modified McDonald-Shadduck scale was used for grading eye irritation and ocular toxicity.
structure (smiles),measurement,setting,value
"C[C@@H]1C[C@H]2[C@@H]3CCC4=CC(=O)C=C[C@]4(C)[C@@]3(F)[C@@H](O)C[C@]2(C)[C@@]1(O)C(=O)COP(=O)(O)O [DSP, dexamethasone sodium phosphate]",Typical conjunctival injection scores immediately after treatment,"treated eyes (right eye); New Zealand White, 12 weeks",1 or <1
same,"Ocular findings in treated eyes (conjunctival injection, discharge, corneal haze)",treated eyes (right eye),transient and mild in nature
same,Body Weight,[1]; 15% DSP,8% loss
same,Body Weight,[1]; 25% DSP,13% loss

# From patent publication US20190105264A1, “NON-INVASIVE OCULAR DRUG DELIVERY DEVICES” (Aciont Inc., priority 2017, published 2019)
